Laboratory results as given in US6794396B2, “Substituted pyridines useful for inhibiting cholesteryl ester transfer protein activity” (Pharmacia Corporation, priority 1998, dated 2004).

Columns and labels:
CETP [1] = target: T1, CETP (Homo sapiens, UniProt P11597); experiment: CETP activity in vitro: transfer of [3H]CE from HDL donor to LDL acceptor particles; assay type: biochemical; conditions: 50% inhibition of [3H]CE transfer from HDL to LDL, 2 hours at 37° C.; read-out: IC50(μm)
T1 construct: made in house; host or cells: CHO cells (serum-free conditioned medium)
T1 sequence (P11597 18-493): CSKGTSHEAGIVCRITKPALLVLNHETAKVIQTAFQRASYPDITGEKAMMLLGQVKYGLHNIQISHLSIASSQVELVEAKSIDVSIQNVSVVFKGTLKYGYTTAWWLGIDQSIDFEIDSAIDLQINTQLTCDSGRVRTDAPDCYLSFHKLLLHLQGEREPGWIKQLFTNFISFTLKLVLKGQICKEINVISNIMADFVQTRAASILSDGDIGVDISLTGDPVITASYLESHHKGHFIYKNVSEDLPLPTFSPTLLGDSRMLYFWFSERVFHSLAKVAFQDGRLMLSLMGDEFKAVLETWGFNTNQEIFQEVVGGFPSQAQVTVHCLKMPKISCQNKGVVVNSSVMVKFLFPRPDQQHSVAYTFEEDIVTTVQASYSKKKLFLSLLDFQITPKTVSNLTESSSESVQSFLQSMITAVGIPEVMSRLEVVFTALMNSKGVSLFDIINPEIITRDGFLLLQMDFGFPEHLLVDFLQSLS
Outline: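 CETP from conditioned medium of CETP-transfected CHO cells incubated with [3H]CE-labelled HDL donor and LDL acceptor, pH 7.4 Tris buffer with NaCl, EDTA and 1% BSA, 2 h at 37 °C. LDL precipitated with dextran sulfate/MgCl2, filtered, and transferred radioactivity counted; IC50 reported.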

[2] = target: T2, CETP in human plasma or serum pool (Homo sapiens, UniProt P11597); experiment: Whole serum CETP activity assay (tritiated cholesterol ester); assay type: biochemical; conditions: 4 hours at 37° C.
T2 construct: from tissue; host or cells: pooled human EDTA plasma or serum from healthy volunteers
T2 sequence (P11597 18-493): T1 sequence (P11597 18-493)
Experimental: Blood was obtained from healthy volunteers recruited from the personnel of Monsanto Company, Saint Louis, Mo. Blood was either collected in tubes containing EDTA (EDTA plasma pool) or in tubes without EDTA (spun to form the serum pool). The EDTA human plasma pool or human serum pool, previously stored at −20° C., was thawed at room temperature, and centrifuged for 5 minutes to remove any particulate matter. Tritiated HDL, radiolabeled in the cholesteryl ester moiety ([^3H]CE-HDL) as described by Morton and Zilversmit (J. Biol. Chem., 256, 11992-95 (1981) which is incorporated by reference herein), was added to the plasma or serum to a final concentration of (25 μg/ml cholesterol).
Inhibitor compounds were added to the plasma or serum as follows: Equal volumes of the plasma or serum containing the [^3H]CE-HDL (396 μl) were pipetted into micro tubes (Titertube®, Bio-Rad Laboratories, Hercules, Calif.). Compounds, usually dissolved as 20-50 mM stock solutions in DMSO, were serially diluted in DMSO (or an alternative solvent in some cases, such as dimethylformamide or ethanol). Four μl of each of the serial dilutions of inhibitor compounds or DMSO alone were then added to each of the plasma or serum tubes. The tubes were immediately mixed. Triplicate aliquots (100 μl) from each plasma or serum tube were then transferred to wells of 96-well round-bottomed polystyrene microtiter plates (Corning, Corning, N.Y.). Plates were sealed with plastic film and incubated at 37° C. for 4 hours.
Test wells contained plasma or serum with dilutions of inhibitor compounds. Control wells contained plasma or serum with DMSO alone. Blank wells contained plasma or serum with DMSO alone that were left in the micro tubes at 4° C. for the 4 hour incubation and were added to the microtiter wells at the end of the incubation period. VLDL and LDL were precipitated by the addition of 10 μl of precipitating reagent (1% (w/v) Dextran Sulfate (Dextralip50)/0.5M magnesium chloride, pH 7.4) to all wells. The wells were mixed on a plate mixer and then incubated at ambient temperature for 10 min. The plates were then centrifuged at 1000×g for 30 mins at 10° C. The supernatants (50 μl) from each well were then transferred to Picoplate™ 96 plate wells (Packard, Meriden, Conn.) containing […] Microscint™-40 (Packard, Meriden, Conn.). The plates were heat-sealed (TopSeal™-P, Packard, Meriden, Conn.) according to the manufacturers directions and mixed for 30 min.
Radioactivity was measured on a microplate scintillation counter (TopCount, Packard, Meriden, Conn.). […] The maximum percent transfer (in the control wells) was determined using the following equation: [formula]
The percent of control transfer determined in the wells containing inhibitor compounds was determined as follows: [formula]
IC50 values were then calculated from plots of % control versus concentration of inhibitor compound.

CETP [3] = experiment: Inhibition of CETP activity in vivo: [3H]CE transfer from HDL to VLDL and LDL after intravenous injection; parameters: species or system golden Syrian hamster; conditions: hamsters, injection into jugular vein, four hours
Description: Inhibition of CETP by a test compound can be determined by administering the compound to an animal by intravenous injection, determining the rate of transfer of tritium-labeled cholesteryl ester (^3H]CE) from HDL to VLDL and LDL particles, and comparing the rate of transfer with the rate of transfer observed in control animals.
Male golden Syrian hamsters were maintained on a diet of chow containing 0.24% cholesterol for at least two weeks prior to the study. Immediately before the experiment, animals were anesthetized with pentobarbital. Anesthesia was maintained throughout the experiment. Indwelling catheters were inserted into the jugular vein and carotid artery. Test compound, Dimethyl 5,5′-dithiobis[2-difluoromethyl)-4-(2-methylpropyl)-6-(trifluoromethyl)-3-pyridinecarboxylate] (Compound 181), was dissolved as a 80 mM stock solution in vehicle (2% ethanol: 98% PEG 400, Sigma Chemical Company, St. Louis, Mo., USA). At the start of the experiment all animals received 0.2 ml of a solution containing [^3H]-CE-HDL into the jugular vein. [^3H[-CE-HDL is a preparation of human HDL containing tritium-labeled cholesteryl ester, and was prepared according to the method of Glenn et al. (“Quantification of Cholesteryl Ester Transfer Protein (CETP): A) CETP Activity and B) Immunochemical Assay of CETP Protein,” Meth. Enzymol., Glenn and Melton (Meth. Enzymol., 263, 339-351 (1996) which is incorporated herein by reference).
After 2 minutes, the animals received 0.1 ml of the test solution injected into the jugular vein. Control animals received 0.1 ml of the vehicle solution without test compound. After 5 minutes, the first blood samples (0.5 ml) were taken from the carotid artery and collected in standard microtainer tubes containing ethylenediamine tetraacetic acid. Saline (0.5 ml) was injected to flush the catheter and replace blood volume. Subsequent blood samples were taken at two hours and four hours by the same method. Blood samples were mixed well and kept on ice until the completion of the experiment.
Plasma was obtained by centrifugation of the blood samples at 4° C. The plasma (50 μl) was then treated with 5 μl of precipitating reagent (dextran sulfate, 10 g/l; 0.5M magnesium chloride to remove VLDL/LDL. After centrifugation, the resulting supernatant (25 μl) containing the HDL was analyzed for radioactivity using a liquid scintillation counter. The percentage [^3H] CE transferred from HDL to LDL and VLDL (% transfer) was calculated based on the total radioactivity in equivalent serum samples before precipitation. Typically, the amount of transfer from HDL to LDL and VLDL in control animals was 30 to 35% after four hours. The polyethylene glycol vehicle was determined to have no effect on CETP activity in this model.
(Compound 181), and five animals that received vehicle. At two hours, mean values of 13% [^3H]-Ce transfer from HDL to LDL and VLDL were obtained for the control animals, but only 4.7% transfer for the animals receiving Compound 181. […] Student t-tests were performed to determine if the means for control and animals treated with Compound 181 were statistically different.

COC(=O)c1c(C(F)F)nc(C(F)(F)F)c(S)c1CC(C)C [Compound 7, Methyl 2-(Difluoromethyl)-5-mercapto-4-(2-methylpropyl)-6-(trifluoromethyl)-3-pyridinecarboxylate]
IC50 (CETP [1]): 8.75 µM | IC50 whole serum CETP activity [2]: 17 µM | % Transfer of [3H]-CE from HDL to LDL and VLDL (CETP [3]): 10.6% | % Inhibition of CETP activity (CETP [3]; versus control animals): 50%
